{
  "source": "patent US5635520A",
  "about": "“Anti-ulcer compositions suitable for rectal administration” (Takeda Chemical Industries, Ltd., priority 1993, dated 1997)",
  "key": {"in vivo": {"experiment": "in vivo", "set-up": "species or system Male SD rats", "settings": "rat, plasma; for AUC at 8 h: 0-8 hr, read-out: AUC0^8 (Area under the plasma concentration time curve)", "protocol": "In the same manner as Experiment Example 1 mentioned above, 960 mg of PEG-6000, 20 mg of lansoprazole and 20 mg of sodium oleate were evenly melted and dispersed. The resulting dispersion was filled in 200 mg portions into metallic rectal suppository containers for rats and cooled to provide composition for rectal administration for rats. In addition, using 960 mg of Witepsol W-35 (Dynamit Nobel), 20 mg of lansoprazole and 20 mg of sodium oleate, composition for rectal administration for rats in otherwise the same manner as above.\nMale SD rats weighing 250-280 g (Japan Clea) were provided. The animals were allowed food and water ad libitum and, then, fasted for about 16 hours (water was available ad libitum). Using the rats fasted for about 16 hours, the composition for rectal administration prepared above were inserted into the anus and, to prevent expulsion of the drug, the perianal skin was clipped.\nFor control purposes, 80 mg of lansoprazole, 1.5 ml of PEG-400 and 9.5 ml of 0.5% aqueous solution of sodium hydrogen carbonate were admixed to prepare an injectable solution. This solution was injected, in a volume of 0.25 ml, into the femoral vein of each rat (intravenous dosing).\nAt 0.08, 0.17, 0.25, 0.5, 1.0, 2.0, 4.0 and 8.0 hours after administration,the blood was drawn from the caudal vein of rats using a blood sampling tube containing a small amount of heparin. Each blood sample was centrifuged (3000 rpm, 10 min.) to separate the plasma (0.1 ml) and lansoprazole in each plasma sample was assayed. The assay method was as follows. To 0.1 ml of plasma were added 0.5 ml of 0.5% aqueous solution of sodium hydrogen carbonate and 3 ml of chloroform and the mixture was shaken vigorously for about 5 minutes and centrifuged at 2500 rpm for about 5 minutes. The under layer (chloroform layer), 2 ml, was taken and the solvent chloform was evaporated off by blasting with nitrogen gas. The residue was redissolved in 0.2 ml of HPLC mobile phase and subjected to HPLC analysis (injection amount 50 μl) under the following conditions.\nColumn: YMC A-303 (5 μm), 4.6 mm in internal diameter and 25 cm in length (YMC).\nMobile phase: a mixture of water, acetonitrile and triethylamine (60:40:1) adjusted to pH 7.0 with phosphoric acid.\nDetection: A UV spectrophotometer (exciting wavelength 285 nm)\nColumn temperature: Room temperature"}, "[1]": {"experiment": "Stability of lansoprazole composition for rectal administration: change in color on storage at 40° C. and 75% relative humidity (Experimental Example 2)", "type": "physicochemical", "settings": "relative humidity 75%, conclusion from Table 2", "protocol": "(§1) After each of them was melted by warming at 60° C., 20 mg of lansoprazole and a specified amount [See Table 1] of sodium oleate were admixed with the base to prepare a composition. Each composition was stored at room temperature (25° C.) and the change in color was evaluated by comparing it with the composition prior to storage.\nUsing different fatty acid salts, the stability of lansoprazole in compositions for rectal administration was evaluated by the same procedure as Experiment Example 1. EPG-4000 or Witepsol W-35 was used as the base and sodium oleate, sodium palmitate or sodium caprate was used as the fatty acid salt, each in the amount indicated in Table 2. In this stability test, the test compositions were stored at a temperature of 40° C. and a relative humidity of 75%."}, "[2]": {"experiment": "Stability of lansoprazole composition for rectal administration: change in color on storage at room temperature (25° C.) (Experiment Example 1)", "type": "physicochemical", "settings": "conclusion from Table 1", "protocol": "Using PEG-4000 (Wako Pure Chemical Industries, Japan) or Witepsol W-35 (Dynamit Novel, Germany) as a base for rectal administration, the stability of lansoprazole in the composition was compared between the inclusion of sodium oleate and the exclusion of sodium oleate.\nas §1"}, "[3]": {"settings": "Rectal, Oleaginous base (Witepsol W-35) with sodium oleate"}, "[4]": {"settings": "Rectal, Water-soluble base (PEG-6000) with sodium oleate"}},
  "note": "Where two headings read alike, the source gives them in different places.",
  "data": [
    {"smiles": "Cc1c(OCC(F)(F)F)ccnc1C[S+]([O-])c1nc2ccccc2[nH]1", "note": "(stereo not shown) [lansoprazole, 2-[2-[3-methyl-4-(2,2,2-trifluoroethoxy)pyridyl]methylsulfinyl]benzimidazole]", "values": [
      {"measurement": "AUC at 8 h", "setting": "in vivo; [3]", "result": 1080, "unit": "ng·h/mL"},
      {"measurement": "concentration at 0.08 h", "setting": "in vivo; [3]", "result": 90, "unit": "ng/mL"},
      {"measurement": "concentration at 0.17 h", "setting": "in vivo; [3]", "result": 140, "unit": "ng/mL"},
      {"measurement": "concentration at 0.25 h", "setting": "in vivo; [3]", "result": 210, "unit": "ng/mL"},
      {"measurement": "concentration at 0.5 h", "setting": "in vivo; [3]", "result": 310, "unit": "ng/mL"},
      {"measurement": "concentration at 1 h", "setting": "in vivo; [3]", "result": 360, "unit": "ng/mL"},
      {"measurement": "concentration at 2 h", "setting": "in vivo; [3]", "result": 180, "unit": "ng/mL"},
      {"measurement": "concentration at 4 h", "setting": "in vivo; [3]", "result": 90, "unit": "ng/mL"},
      {"measurement": "concentration at 8 h", "setting": "in vivo; [3]", "result": 50, "unit": "ng/mL"},
      {"measurement": "AUC at 8 h", "setting": "in vivo; [4]", "result": 890, "unit": "ng·h/mL"},
      {"measurement": "concentration at 0.08 h", "setting": "in vivo; [4]", "result": 160, "unit": "ng/mL"},
      {"measurement": "concentration at 0.17 h", "setting": "in vivo; [4]", "result": 240, "unit": "ng/mL"},
      {"measurement": "concentration at 0.25 h", "setting": "in vivo; [4]", "result": 310, "unit": "ng/mL"},
      {"measurement": "concentration at 0.5 h", "setting": "in vivo; [4]", "result": 420, "unit": "ng/mL"},
      {"measurement": "concentration at 1 h", "setting": "in vivo; [4]", "result": 330, "unit": "ng/mL"},
      {"measurement": "concentration at 2 h", "setting": "in vivo; [4]", "result": 110, "unit": "ng/mL"},
      {"measurement": "concentration at 4 h", "setting": "in vivo; [4]", "result": 60, "unit": "ng/mL"},
      {"measurement": "concentration at 8 h", "setting": "in vivo; [4]", "result": 30, "unit": "ng/mL"},
      {"measurement": "AUC at 8 h", "setting": "in vivo; iv", "result": 3860, "unit": "ng·h/mL"},
      {"measurement": "concentration at 0.08 h", "setting": "in vivo; iv", "result": 6960, "unit": "ng/mL"},
      {"measurement": "concentration at 0.17 h", "setting": "in vivo; iv", "result": 5390, "unit": "ng/mL"},
      {"measurement": "concentration at 0.25 h", "setting": "in vivo; iv", "result": 4830, "unit": "ng/mL"},
      {"measurement": "concentration at 0.5 h", "setting": "in vivo; iv", "result": 3280, "unit": "ng/mL"},
      {"measurement": "concentration at 1 h", "setting": "in vivo; iv", "result": 910, "unit": "ng/mL"},
      {"measurement": "concentration at 2 h", "setting": "in vivo; iv", "result": 70, "unit": "ng/mL"},
      {"measurement": "concentration at 4 h", "setting": "in vivo; iv", "result": 5, "unit": "ng/mL"},
      {"measurement": "concentration at 8 h", "setting": "in vivo; iv", "result": 2, "unit": "ng/mL"}
    ]},
    {"smiles": "CCCCCCCCCC(=O)[O-].[Na+]", "note": "[sodium caprate]", "values": [
      {"measurement": "contribution to the stability of the active drug", "setting": "[1]", "result": "contributed a great deal to the stability of the active drug"}
    ]},
    {"smiles": "CCCCCCCC/C=C\\CCCCCCCC(=O)[O-].[Na+]", "note": "[sodium oleate]", "values": [
      {"measurement": "stabilization of lansoprazole", "setting": "[2]", "result": "stabilized lansoprazole"},
      {"measurement": "contribution to the stability of the active drug", "setting": "[1]", "result": "contributed a great deal to the stability of the active drug"}
    ]},
    {"smiles": "CCCCCCCCCCCCCCCC(=O)[O-].[Na+]", "note": "[sodium palmitate]", "values": [
      {"measurement": "contribution to the stability of the active drug", "setting": "[1]", "result": "contributed a great deal to the stability of the active drug"}
    ]}
  ]
}
